Key:
[1] = system: Layer II/III pyramidal cells of prefrontal cortex (PFC); assay: Golgi staining morphological analysis of PFC pyramidal cells; assay type: in vivo, mouse; settings: for spine density versus branch orders, overall: FIG. 17A; for spine density versus branch orders, basal dendrites: FIG. 17B; for spine density versus branch orders, apical dendrites: FIG. 17C; for spine density at 30 micron intervals from the soma, overall: FIG. 18A; for spine density at 30 micron intervals from the soma, basal dendrites: FIG. 18B; for spine density at 30 micron intervals from the soma, apical dendrites: FIG. 18C
Description: Details of the animals, materials, and methods used are provided following the discussion section below. Briefly, all studies discussed below were conducted using three groups of animals designated “Young” (2 months of age at the beginning of the 8-week study, 4 months of age at time of testing; “Old” (22 months of age at beginning of study, 24 months of age at time of testing); and “Treatment” (“Old” mice who received GL-II-73 in the drinking water for 8 weeks prior to evaluation of cognitive ability and pyramidal cell morphology). The last study further included a fourth group of animals, “Treatment+Washout” which were treated the same as the “Treatment” group except that the GL-II-73 was removed for a 1 week “wash-out” period prior to evaluation of pyramidal cell morphology.
Table 1 summarizes the results of a quantitative assessment of the morphological properties of Layer II/III pyramidal cells of prefrontal cortex (PFC) between Young, Old, and Treatment groups. […] Check marks represent countable spines; X's represent uncountable spines. The total number of sampled neurons in the PFC study was 72 cells with a total of 1,888 dendritic segments, 193,698 total dendritic lengths (μm), and 199,529 spine counts, respectively.
Table 2 summarizes the results of a quantitative assessment of the morphological properties of Layer II/III pyramidal cells of prefrontal cortex (PFC) between Young, Old, Old-Treatment, and Old-washout groups. As noted above, mice assigned to the “Young” group were 2 months of age at the beginning of the 8-week study and 4 months of age at time of testing; mice assigned to the “Old” group were 22 months of age at beginning of study, 24 months of age at time of testing; mice assigned to the “Old-Treatment” group were the same age as the “Old” group and received GL-II-73 in their drinking water for 8 weeks prior to evaluation; and mice assigned to the “Old-washout” group were the same age and treatment as the “Old-Treatment” group except that the GL-II-73 was removed for a 1 week “wash-out” period prior to evaluation. Differences in total dendritic lengths, overall spine counts, and overall spine density between groups were determined via ANOVA analysis.
Drug preparation and administration: The compound GL-II-73 was administered in the drinking water for 8 weeks, and made fresh every other day to prevent any deterioration of the compound in the water at room temperature. The solution was prepared at 30 mg/kg for an estimated volume of 8 ml/mouse/day, based on previous calculations. For the pilot study in the 5×FAD mouse model, the compound GL-II-73 was prepared for intra peritoneal injection only, at a dose of 10 mg/kg. Vehicle solution was made of 85% distilled water, 14% propylene glycol and 1% tween-80.
Brain collection and Golgi staining: Twenty-four hours after the completion of the behavioral testing, mice were euthanized using cervical dislocation. Brains were carefully collected from the skull, rinsed with MilliQ water and immersed in the Golgi staining solution provided by Neurodigitech (San Diego, CA). Six hours after the beginning of the incubation, the solution was changed to provide fresh solution. Then brains were left incubating for 14 days at room temperature, in the dark. For better results, vials containing the brains were gently swirled 3 times a week. After the incubation period, the staining solution was discarded and replaced by a storage solution and brains (n=4 per group) were shipped to Neurodigitech for morphological analysis.
Slice preparation: Brains were cut at 40 μm thickness using a cryostat and mounted on glass slides. The slides included serial coronal sections that covered the anterior-to-posterior axis of the brain. The sampling of ROIs included the basal and apical dendrites of pyramidal cells in Layers II/III of PFC. […]

[2] = system: cultured pyramidal neurons; assay: Morphology of cultured GFP-expressing pyramidal neurons after acute treatment; assay type: cell-based, mouse; settings: 1 μM, 24 hrs, vs vehicle (0.01% DMSO); FIG. 11A-B; initial data
Description: Transgenic mice were generated to express a fluorescent protein (GFP) only in pyramidal neurons. Embryos were collected at E17, and brain homogenates were plated and cultured under suitable conditions for neuronal growth. Following 2 weeks of incubation and growth, the compound GL-II-73 (1 μM) or vehicle was applied and left for 24 hrs. Isolated cells were then used to image the entire neuron and visualize dendrites and spines on a single neuron.

[3] = Table 1, first study, Old, Treatment group, 4 samples
[4] = Table 2, washout study, Old, Treatment group, 4 samples
[5] = Table 2, Old, Washout group, 4 samples
[6] = washout study, FIG. 15B, Treatment vs Old mice, p<0.05
[7] = washout study, FIG. 15B, Washout vs Old mice, p<0.05
[8] = washout study, FIG. 16B, Old+Treatment vs Old mice, p<0.05
[9] = washout study, FIG. 16B, Washout vs Old mice, p<0.05
[10] = washout study, Old+Treatment vs Old mice, p<0.05
[11] = washout study, Washout vs Old mice, p<0.05

## C#Cc1ccc2c(c1)C(c1ccccc1F)=N[C@H](C)c1c(C(=O)N(C)C)ncn1-2 (stereo in doubt) [GL-II-73, 8-ethynyl-6-(2-fluorophenyl)-N,N,4-trimethyl-4H-benzo[f]imidazo[1,5-a][1,4]diazepine-3-carboxamide]
[1]; Table 1, first study, Old, Treatment group (GL-II-73 in drinking water 8 weeks), 4 samples
  Total segments: 666
[1]; [3]
  Overall spinal density: 1.01
  Total lengths (microns): 66,656 microns
  total spine counts: 67,107
[1]; Table 2, washout study, Old, Treatment group (8 weeks GL-II-73), 4 samples
  Total segments: 1180
[1]; [4]
  Overall spinal density: 1.11
  Total lengths (microns): 58395 microns
  total spine counts: 64863
[1]; Table 2, Old, Washout group (8 weeks GL-II-73, then 1 week wash-out), 4 samples
  Total segments: 1253
[1]; [5]
  Overall spinal density: 1.17
  Total lengths (microns): 59414 microns
  total spine counts: 69305
[1]; first study, FIG. 3A, treatment group vs young mice, p>0.05
  total dendritic lengths: no significant difference in total dendritic length between the young mice and the treatment group
[1]; first study, FIG. 3B, between groups, p>0.05
  total dendritic lengths, basal dendrite: no difference was found in the basal dendrite between groups
[1]; first study, FIG. 3B, treatment group vs old mice, p<0.05
  total dendritic lengths, apical dendrites: higher total dendritic lengths of apical dendrites than old mice
[1]; first study, FIG. 4A, treatment group vs old mice, p<0.05
  total spine counts: higher spine counts than old mice
[1]; first study, FIG. 4B, treatment group vs old mice, p<0.05
  total spine counts, apical dendrites: higher spine count than old mice
[1]; first study, FIG. 4B, treatment group vs young mice, p>0.05
  total spine counts, basal dendrites: no difference in both basal and apical dendrites between young mice and the treatment group
[1]; first study, FIG. 5A, treatment group vs old mice, p<0.05
  overall spine density: higher density than old mice
[1]; first study, FIG. 5B, treatment group vs old mice, p>0.05
  spine density, apical dendrites: no difference between old mice and the treatment group
[1]; first study, FIG. 6A, treatment group vs old mice, p<0.05
  spine density × branch orders, overall: higher density at the 1st branch order than old mice
[1]; first study, FIG. 6B, treatment group vs old mice, p<0.05
  spine density × branch orders, basal dendrites: significantly higher density at the 1st branch order than old mice
[1]; first study, FIG. 6C, treatment group vs old mice, p<0.05
  spine density × branch orders, apical dendrites: higher density at the 1st order than old mice
[1]; first study, FIG. 7A, Sholl analysis, treatment group vs old mice, p<0.05
  spine density × every 30 micron interval from soma, overall: higher density at 180 micron interval from soma than old mice
[1]; first study, FIG. 7C, treatment group vs old mice, p<0.05
  spine density × every 30 micron interval from soma, apical dendrites: higher density at 180 micron interval from soma of the dendritic field than old mice
[1]; first study, FIG. 8A, old vs treatment group, p<0.05
  frequency of intersections × 30 micron interval relative to soma, overall: significant reductions at a distance of 120-150 micron from the soma between old and young mice as well as between old and the treatment group
[1]; first study, FIG. 8B, old vs treatment group, p>0.05
  frequency of intersections × 30 micron interval, basal dendrites: a trend of decrease was found at 120-150 micron interval from soma between Old and Young as well as old and the treatment group
[1]; first study, FIG. 8C, treatment group vs old mice, p<0.05
  frequency of intersections × 30 micron interval, apical dendrites: higher frequency at 120-150 micron interval from soma than old mice
[1]; washout study, FIG. 15A, Old+Treatment vs Old mice, p<0.05
  total spine counts: more spine counts than Old mice
[1]; washout study, FIG. 15A, Washout (1 week after 8 weeks GL-II-73) vs Old mice, p<0.05
  total spine counts: more spine counts than Old mice
[1]; [6]
  total spine counts, apical dendrites: higher spine counts
  total spine counts, basal dendrites: higher spine counts
[1]; [7]
  total spine counts, apical dendrites: higher spine counts
  total spine counts, basal dendrites: higher spine counts
[1]; washout study, FIG. 16A, Old+Treatment vs Old mice, p<0.05
  overall spine density: higher spine density than Old mice
[1]; washout study, FIG. 16A, Washout vs Old mice, p<0.05
  overall spine density: higher spine density than Old mice
[1]; [8]
  spine density, apical dendrites: Old mice exhibited a lower spine density than Young, Old+Treatment and Washout mice
  spine density, basal dendrite: Old mice showed a significant decrease of spine density in the basal dendrite as compared to Young, Old+Treatment and Washout mice
[1]; [9]
  spine density, apical dendrites: Old mice exhibited a lower spine density than Young, Old+Treatment and Washout mice
  spine density, basal dendrite: Old mice showed a significant decrease of spine density in the basal dendrite as compared to Young, Old+Treatment and Washout mice
[1]; [10]
  spine density versus branch orders, overall: higher spine density at the 2nd to 6th
  spine density versus branch orders, basal dendrites: higher density at the 5th branch order than Old mice
  spine density versus branch orders, apical dendrites: higher density at the 2nd branch order than Old mice
  spine density at 30 micron intervals from the soma, overall: higher spine density at 150 um to 210 um from soma
  spine density at 30 micron intervals from the soma, basal dendrites: higher density between 150 um and 180 um from soma
  spine density at 30 micron intervals from the soma, apical dendrites: higher density at 180 um to 210 um from soma
[1]; [11]
  spine density versus branch orders, overall: 3rd to 6th branch orders
  spine density versus branch orders, basal dendrites: higher density at the 5th branch order than Old mice
  spine density versus branch orders, apical dendrites: higher spine density at the 5th to 6th branch orders than Old mice
  spine density at 30 micron intervals from the soma, overall: higher spine density at 90 um to 210 um from soma
  spine density at 30 micron intervals from the soma, basal dendrites: higher density between 120 um and 180 um from the soma than Old mice
  spine density at 30 micron intervals from the soma, apical dendrites: higher spine density at 120 um to 210 um from soma
[2]
  dendritic length: longer dendrites
  spine density (spines): more spines

Source: patent publication US12636291B2, “Compositions and methods relating to use of agonists of ALPHA5-containing GABAA receptors” (Centre for Addiction and Mental Health, priority 2019, dated 2026)
